Source: paper PMC11944387, “Cannabidiol-Based Thiosemicarbazones: A Preliminary Study Evaluating Their Anti-Tyrosinase Properties” (Molecules, 2025)
Where “and” joins values, the source holds several entries; their conditions need not be identical. Equal values may be shown once. Entries after “also recorded” stand apart in the source; their conditions may differ.

How the values were obtained:
mushroom TYR [1] = assay: Inhibition of diphenolase activity of mushroom TYR (L-DOPA substrate); format: biochemical, Agaricus bisporus; conditions: for IC50: diphenolase activity, L-DOPA 2 mM, pH 6.8, 37 °C, read-out: IC50 against mushroom TYR catalyzing oxidation of L-DOPA; for Inhibitory activity on TYR (in words): discussion of Table 1, mushroom TYR
Method: The inhibitory effects of the thiosemicarbazone–CBD–aldehyde derivatives on the diphenolase activity of mushroom TYR were assessed by UV-Vis spectrometry using L-DOPA as the substrate.
A potassium phosphate buffer (80 μL, 50 mM, pH 6.8), 20 μL of tyrosinase (100 units/mL), and 2 μL of the tested compounds (10–150 μM) dissolved in dimethyl sulfoxide (DMSO) were added to 96-well plates. After incubation at 37 °C for 20 min, 100 μL of L-DOPA (2 mM) was added. The absorbance changes at 475 nm (ε = 3.7 × 10^3 M^−1cm^−1) were immediately monitored for 20 min at 37 °C using a Tecan Infinite 200 PRO plate reader. […] Dose–response curves were generated by conducting assays with increasing concentrations of each inhibitor. To ensure measurement accuracy, all experiments were performed in triplicate, with the average value used as the final result.

[2] = DPPH radical-scavenging assay; conditions: 100 μM DPPH in ethanol, 30 min at room temperature in the dark, absorbance 517 nm; mean ± SD
Method: The total antioxidant capacity of the synthesized compounds was determined using the DPPH radical as a reagent, according to the procedure described by Chang et al. with some modifications. Briefly, 100 μL of 100 μM solution of DDPH in ethanol was added to 10 μL of the synthesized compounds at different concentrations (500, 250, 125, 62.5, 31.25, 15.62, and 7.81 μM). […] The percentage of the inhibition of DPPH oxidation was calculated according to the following formula: DPPHscavengingeffect%=Acontrol−Asample/Acontrol×100 where Acontrol means the absorbance of the control sample and Asample means the absorbance of the standard or tested compound.

mushroom TYR [3] = assay: Fluorescence quenching assay of TYR; format: binding, Agaricus bisporus; conditions: 310 K; for kq (bimolecular quenching rate constant): from Ksv with τ0 = 10^−8 s; for ka (binding constant): static quenching, double-log equation; for Ksv (Stern–Volmer quenching constant): λex 280 nm, pH 6.8
Method: The fluorescence quenching spectra were recorded with an excitation wavelength (λex = 280 nm) and excitation and emission slit widths of 5 nm. A potassium phosphate buffer (80 μL, 50 mM, pH 6.8), 20 μL of tyrosinase (100 units/mL), and 2 μL of the tested compounds (10–100 μM) dissolved in DMSO were added to 96-well plates. After incubating at 37 °C for 20 min, the fluorescence spectrum was recorded at an emission range from 315 to 415 nm. Fluorescence quenching is described by the Stern–Volmer equation [69]: F0/F=1+Kqτ0[Q]=1+ksv[Q]
For the static quenching interaction, the binding affinity (Ka) and the number of binding sites (n) between the inhibitor and TYR were determined using the following calculations:(1) logF0−F/F=nlogQ+logka where F and F0 represent the fluorescence intensities of protein in the presence and absence of a quencher, respectively. [Q] is the quencher concentration. Ksv is the Stern–Volmer quenching constant, and kq is the rate constant of the bimolecular quenching process. τ0 is the average fluorescence lifetime of the fluorophores in the absence of the quencher, with a typical value of 10^−8 s for biological macromolecules.

[4] = Ferric-reducing antioxidant power (FRAP) assay; conditions: trolox equivalent; 45 min at 37 °C, absorbance 595 nm
Method: The antioxidant capacity of the synthesized compounds was evaluated by the reduction of the ferric 2,4,6-tripyridyl-s-triazine complex (Fe^3+-TPTZ) to the ferrous form (Fe^2+-TPTZ) at low pH, which causes a colored ferrous–tripyridyltriazine complex to form, according to the procedure described by Benzie et al., with some modifications. Briefly, 20 µL of the tested compound was mixed with 130 µL FRAP reagent (buffer acetate pH = 3.6, 10 mM TPTZ, 40 mM HCl, 20 mM FeCl3/H2O ratio 10:1:1) and then incubated for 45 min at 37 °C. FRAP values were obtained by comparing the absorbance change at 595 nm in test reaction mixtures with those containing ferrous ions in known concentrations using trolox as a calibration curve (concentrations between 7.8 and 500 µM). The results were expressed as μM of trolox equivalent (TE). The absorbance was measured using a Tecan Infinite 200 PRO plate reader.

mushroom TYR [5] = assay: Monophenolase inhibition assay of mushroom TYR (L-tyrosine substrate), lag time; format: biochemical, Agaricus bisporus; conditions: oxidation of L-tyrosine by mushroom TYR; for Lag time: compound 20 μM, without inhibitor 4.40 min; for Lag phase: control 264 s
Method: Additionally, the impact of the newly synthesized compounds on the initial stage of TYR enzymatic activity was evaluated using L-tyrosine as the substrate. This initial phase is characterized by a lag period and an increased reaction rate.
[…] After incubation at 37 °C for 20 min, 100 μL of L-tyrosine (2 mM) was added. The absorbance changes at 475 nm were immediately monitored for 40 min at 37 °C using a Tecan Infinite 200 PRO plate reader. The lag time was determined from the plot of absorbance at 475 nm versus time (min) by extrapolating the linear portion of the curve to the x-axis.

mushroom TYR [6] = assay: Inhibition kinetics on diphenolase activity of TYR (Lineweaver–Burk); format: biochemical, Agaricus bisporus; conditions: Lineweaver–Burk plot, L-DOPA 0.1–1 mM, compound 2.5–30 μM
Method: The inhibition mechanism of compound 5 on the diphenolase activity of TYR was further studied. The inhibition type was determined by the classical Lineweaver–Burk plot based on the inhibitory results of 5.
To evaluate the inhibition kinetics of tyrosinase, assays were conducted in phosphate buffer (50 mM, pH 6.8) using L-DOPA as the substrate (0.1–1 mM) and tyrosinase ([…]) in the presence of varying concentrations of compound 5 (2.5–30 μM) under the same conditions as described in Section 4.4. Absorbance changes at 475 nm were continuously monitored for 40 min at 37 °C using a Tecan Infinite 200 PRO plate reader. Initial reaction velocities (V0) were determined for each inhibitor concentration, and kinetic parameters (Kₘ and Vₘₐₓ) were analyzed using Lineweaver–Burk and Michaelis–Menten plots to determine the type of inhibition. All experiments were performed in triplicate to ensure reproducibility.

With `C=C(C)[C@@H]1CCC(C)=C[C@H]1c1c(O)cc(CCCCC)c(/C=N/NC(=N)N)c1O` [Compound 4] the IC50 (mushroom TYR [1]) was over 100 µM and the “Inhibitory activity on TYR (in words)” value (mushroom TYR [1]) was “did not exhibit any inhibitory activity”.

In the case of `Cc1c(C)c2c(c(C)c1O)CCC(C)(C(=O)O)O2` (stereo not shown) [trolox, reference compound], the IC50 [2] is reported as 54.6 ± 3.45 µM.

For `C=C(C)[C@@H]1CCC(C)=C[C@H]1c1c(O)cc(CCCCC)c(/C=N/NC(=S)N(C)C)c1O` [Compound 7, 3-(4,4-dimethyl-3-thiosemicarbazone)–CBD–aldehyde], the IC50 [2] was 116 ± 5.05 µM, the “kq (bimolecular quenching rate constant)” value (mushroom TYR [3]) was 1.38e+12 M⁻¹ s⁻¹ and the “ka (binding constant)” value (mushroom TYR [3]) was 5200 M⁻¹. The “Ksv (Stern–Volmer quenching constant)” value (mushroom TYR [3]) was 13800 M⁻¹, the FRAP value [4] was 981.9 ± 9.66 μM TE and the Lag time (mushroom TYR [5]) was 6.19 min and 6.19 ± 0.27 min. For the same molecule, the Lag phase (mushroom TYR [5]) was 371 s and the IC50 (mushroom TYR [1]) was 28.1 ± 1.82 µM.

With `C=C(C)[C@@H]1CCC(C)=C[C@H]1c1c(OC)cc(CCCCC)c(/C=N/NC(N)=S)c1OC` [Compound 9, 3-thiosemicarbazone–CBD–dimethylether] the IC50 [2] was 316 ± 16 µM, the “kq (bimolecular quenching rate constant)” value (mushroom TYR [3]) was 1.3e+12 M⁻¹ s⁻¹ and the “ka (binding constant)” value (mushroom TYR [3]) was 13100 M⁻¹. For the same molecule, the “Ksv (Stern–Volmer quenching constant)” value (mushroom TYR [3]) was 13000 M⁻¹, the FRAP value [4] was 431.5 ± 13.51 μM TE and the Lag time (mushroom TYR [5]) was 6.67 min and 6.67 ± 0.17 min. The Lag phase (mushroom TYR [5]) was 400 s and the IC50 (mushroom TYR [1]) was 22.4 ± 2.9 µM.

Work on `C=C(C)[C@@H]1CCC(C)=C[C@H]1c1c(O)cc(CCCCC)c(C=O)c1O` [Compound 2] yielded an IC50 (mushroom TYR [1]) of over 100 µM.

With `C=C(C)[C@@H]1CCC(C)=C[C@H]1c1c(O)cc(CCCCC)c(/C=N/NC(N)=S)c1O` [Compound 5, 3-thiosemicarbazone–CBD–aldehyde] the IC50 [2] was 53.5 ± 5.29 µM, the “kq (bimolecular quenching rate constant)” value (mushroom TYR [3]) was 7.61e+11 M⁻¹ s⁻¹ and the “ka (binding constant)” value (mushroom TYR [3]) was 12100 M⁻¹. For the same molecule, the “Ksv (Stern–Volmer quenching constant)” value (mushroom TYR [3]) was 7610 M⁻¹, the FRAP value [4] was 1257 ± 6.78 μM TE and the Lag time (mushroom TYR [5]) was 9.89 min and 9.89 ± 0.66 min. For the same molecule, the Lag phase (mushroom TYR [5]) was 593 s, the IC50 (mushroom TYR [1]) was 27.7 ± 1.84 µM and the Inhibition type (mushroom TYR [6]) was “mixed-type inhibition; also recorded: reversible, mixed-type inhibitor”.

With `C=C(C)[C@@H]1CCC(C)=C[C@H]1c1c(O)cc(CCCCC)c(/C=N/NC(N)=O)c1O` [Compound 3] the IC50 (mushroom TYR [1]) was over 100 µM and the “Inhibitory activity on TYR (in words)” value (mushroom TYR [1]) was “did not exhibit any inhibitory activity”.

For `C=C(C)[C@@H]1CCC(C)=C[C@H]1c1c(O)cc(CCCCC)c(/C=N/NC(=S)NC)c1O` [Compound 6, 3-(4-methyl-3-thiosemicarbazone)–CBD–aldehyde], the IC50 [2] was 63.7 ± 3.29 µM, the “kq (bimolecular quenching rate constant)” value (mushroom TYR [3]) was 9.98e+11 M⁻¹ s⁻¹ and the “ka (binding constant)” value (mushroom TYR [3]) was 8700 M⁻¹. For the same molecule, the “Ksv (Stern–Volmer quenching constant)” value (mushroom TYR [3]) was 9980 M⁻¹, the Lag time (mushroom TYR [5]) was 6.06 min and 6.06 ± 0.11 min and the Lag phase (mushroom TYR [5]) was 363 s. It also gave an IC50 (mushroom TYR [1]) of 29.4 ± 2.22 µM.

In the case of `C=C(C)[C@@H]1CCC(C)=C[C@H]1c1c(O)cc(CCCCC)cc1O` [Compound 1, Cannabidiol], the IC50 [2] is reported as 506.1 ± 4.67 µM, the FRAP value [4] is reported as 282.1 ± 5.68 μM TE and the IC50 (mushroom TYR [1]) is reported as over 100 µM.

With `C=C(C)[C@@H]1CCC(C)=C[C@H]1c1c(O)cc(CCCCC)c(/C=N/NC(=S)Nc2ccccc2)c1O` [Compound 8, 3-(4-phenyl-3-thiosemicarbazone)–CBD–aldehyde] the IC50 [2] was 57.6 ± 1.71 µM, the “kq (bimolecular quenching rate constant)” value (mushroom TYR [3]) was 4.68e+12 M⁻¹ s⁻¹ and the “ka (binding constant)” value (mushroom TYR [3]) was 25500 M⁻¹. For the same molecule, the “Ksv (Stern–Volmer quenching constant)” value (mushroom TYR [3]) was 46800 M⁻¹, the FRAP value [4] was 931.7 ± 8.97 μM TE and the Lag time (mushroom TYR [5]) was 4.58 min and 4.58 ± 0.04 min. It also gave a Lag phase (mushroom TYR [5]) of 274 s and an IC50 (mushroom TYR [1]) of 42.2 ± 3.52 µM.
